One compound from ChEMBL document CHEMBL1130639, “Synthesis of anti-rheumatic agent epoxyquinomicin B” (Bioorg Med Chem Lett, 1998) can be followed below.

This series in a line: Lethal dose upon intraperitoneal administration. The class given is ADME. To be noted: ip.

As to `O=C(NC1=CC(=O)[C@]2(CO)O[C@@H]2C1=O)c1ccccc1O`, the LD50 was found to be 50 mg/kg.

What is called LD50 is the dose expected to kill half of the subjects tested.
